ChEMBL document CHEMBL1134150, “Synthesis and antiproliferative activity of some thiazolylbenzimidazole-4,7-diones” (Bioorg Med Chem Lett, 2001)
pIC50: −log10 of the molar value.

Columns and labels:
K562 = assay: Antiproliferative activity tested as 50% inhibition of DNA synthesis in human K562 erythroleukemia cell line; format: functional, cell-based
SW-620 = assay: Antiproliferative activity tested as 50% inhibition of DNA synthesis in human SW620 colon carcinoma cell line; format: functional, cell-based

SMILES | pIC50 (K562) | pIC50 (SW-620)
CCOC(=O)c1csc(-c2nc3c([nH]2)C(=O)C=CC3=O)n1 | 4.79 | 5.85
CCOC(=O)c1csc(-c2nc3c([nH]2)C(=O)C=C(OC)C3=O)n1 | 5.94 | 4.88
NC(=O)c1csc(-c2nc3c([nH]2)C(=O)C=CC3=O)n1 | 5.11 | 5.52
O=C(O)c1csc(-c2nc3c([nH]2)C(=O)C=CC3=O)n1 | 4.75 | 5.06
COc1cccc2c1C(=O)c1c(O)c3c(c(O)c1C2=O)C[C@@](O)(C(=O)CO)C[C@@H]3O[C@H]1C[C@H](N)[C@H](O)[C@H](C)O1 [DOXORUBICIN] | 6.21 | 6.12

Further lines, results first:

pIC50 (K562) | pIC50 (SW-620) | SMILES
4.82 | 4.92 | COC1=CC(=O)c2[nH]c(-c3nc(C(=O)O)cs3)nc2C1=O
5.88 | 4.80 | COC1=CC(=O)c2[nH]c(-c3nc(C(N)=O)cs3)nc2C1=O
